The target of assay [1] is truncated XIAP containing only BIR1, BIR2, and BIR3 domains (Homo sapiens, UniProt P98170). The assay can be described thus: Fluorescent polarization (FP) assay. In kind it is binding. The conditions noted are these: Table 1 experiment. As to the method: Increasing concentrations of Smac compounds are incubated with 2 nM of labeled peptide (fluorescein labeled 10mer peptide with AVPI 4 amino acids at its N terminus-Alexa Fluor 488) and truncated XIAP containing only BIR1, BIR2, and BIR3 domains at room temperature for 1 hour. Fluorescence reading, indicative of the bound portion of the labeled peptide, is measured in milipolarization units (mP). The more compound added, less fluorescein labeled peptide bind to the protein due to the competitive binding and less fluorescence signal is released.
Based on this principle, we obtain the Ki value that evaluates compound's binding affinity.

Assay [2] has as its system Caspase3 activity in Hela S100 (blocked by IAPs). In words: In vitro caspase-3 activation assay in Hela S100. In kind it is biochemical. The conditions noted are these: 100 nM compound; activity compared with reference compound; Table 1 experiment. As to the method: Caspase3 in most cell extracts can be activated by the addition of 1 mM dATP through the mitochondria caspase pathway. […] Taking advantage of this feature, we use 100 nM of synthetic Smac mimetic compound to test its ability to eliminate IAPs in the Hela S100 and fully induce Caspase3 activity. The In Vitro Caspase3 assay is carried out at 30° C., incubating 100 nM compounds with 30 ug of Hela S100, 1 mM dATP, 10 uM Caspase3 fluorogenic substrate (Caspase3 Substrate II, Fluorogenic, #235425 from Calbiochem). The readout is caspase-3 activity represented by relative fluorogenic unit, which is recorded kinetically. The slope in linear region of the curve for each compound is calculated.
Percent activity data is presented by comparing activity of the test compound with activity of the reference compound in Caspase-3 activation assay in vitro. The ratio of each synthetic compound's slope versus the slope of control reflects in vitro caspase-3 activation ability of compounds.

The subject of the next assay is HCC461 cells. In words: Cell viability assay in HCC461 cells (WST-1). In kind it is cell-based. The conditions noted are these: HCC461, 48 h, 48 hrs incubation; Table 1 experiment. As to the method: HCC461 cells plated in 96 well plates at 5×10^4/ml cell density are treated with 50× synthetic Smac mimetic compounds (final concentration range between 30 uM and 0.001 uM). After 48 hrs incubation at 37° C. and 5% CO2 viability of the cells are measured using Cell Proliferation Reagent WST-1 assay kit (Roche Cat #11 644 807 001).
WST-1 assay principle: The tetrazolium salts are cleaved to formazan by cellular enzymes. An expansion in the number of viable cells results in an increase in the overall activity of mitochondrial dehydrogenases in the samples. This augmentation in the enzyme activity leads to an increase in the amount of formazan dye formed, which directly correlates to the number of metabolically active cells in the culture. Quantification of the formazan dye produced by metabolically active cells by using a microplate (ELISA) reader at 420-480 nm.
In general terms: Formazan colour is commonly taken as a measure of viable cells.

The text below walks through data of patent US8642554B2, “Smac mimetic dimers and trimers useful as anti-cancer agents” (Joyant Pharmaceuticals, Inc., priority 2007, dated 2014).

truncated XIAP containing only BIR1, BIR2, and BIR3 domains, sequence (P98170 26-330 limits assumed): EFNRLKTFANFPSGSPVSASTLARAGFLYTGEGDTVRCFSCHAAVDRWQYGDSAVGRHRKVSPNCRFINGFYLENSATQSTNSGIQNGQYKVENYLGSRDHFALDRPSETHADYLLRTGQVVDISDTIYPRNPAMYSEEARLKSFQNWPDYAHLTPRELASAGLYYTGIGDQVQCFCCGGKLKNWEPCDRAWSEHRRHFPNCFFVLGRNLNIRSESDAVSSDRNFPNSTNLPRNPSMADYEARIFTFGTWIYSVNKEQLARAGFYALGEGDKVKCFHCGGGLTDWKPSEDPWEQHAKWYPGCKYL

One may read the Ki as the equilibrium dissociation constant of an inhibitor or competing ligand from its target. A higher Ki goes with weaker binding. The term IC50 denotes the concentration that inhibits the measured activity by half. High values mean a need for much substance, low ones inhibition by little substance. Consider `CN[C@@H](C)C(=O)NC(C(=O)C1C[C@@H](NC(=O)c2cccc(C(=O)N[C@H]3CC(C(=O)N[C@@H]4CCCc5ccccc54)N(C(=O)[C@@H](NC(=O)[C@H](C)NC)C(C)(C)C)C3)c2)CC1C(=O)N[C@@H]1CCCc2ccccc21)C(C)(C)C.Cl.Cl` (stereo partly drawn) [compound 19], for which, in assay [1], the Ki is 0.45 µM. In addition, the “% Activity at 100 nM” value in assay [2] is 120%. In addition, the IC50 with HCC461 cells was 0.007 µM.
